Here are results for six molecules from US20250304533A1, “THERAPEUTIC ALKALOID COMPOUNDS” (Sensorium Therapeutics, Inc., priority 2022, published 2025).

Where two headings read alike, the source gives them in different places. Some results are limits rather than exact numbers.

Data set [1] deals with T1, SERT (Homo sapiens, UniProt P31645).
T1 construct: expressed in transfected cells
Kind of data set: SERT Inhibition Assay of Example A1 (Neurotransmitter Transporter fluorescence uptake, stable 5HTT cells). In kind it is cell-based. The protocol: SERT inhibition was measured using a Neruotransmitter Transportation Fluorescence assay. Briefly, stable 5HTT cells were prepared in a 384 microwell plate. Compounds were prepared by in assay buffer (20 mM HEPES, 0.1% BSA). The compounds were added to the plated cells and incubated for 30 minutes at 37° C. 25 μL of dye solution (Molecular Devices Neurotransmitter Transporter Uptake Assay Kit) is added per well and incubated for 30 minutes at 37° C. The plates are then read on a plate reader.

Data set [2] has as its target T2, PDE4C1 (Homo sapiens, UniProt Q08493).
T2 construct: purchased BPSBioscience
The data set can be described thus: Recombinant PDE4 Inhibition Assay of Example A2. Format: biochemical. The settings on record: recombinant enzyme. The protocol:
(§1) Recombinant PDE assay inhibition can be measured according to the BPSBioscience PDE4 assay kit, as described below.
(§2) 1) Dilute 20 µM FAM-Cyclic-3′,5′-AMP stock 100-fold with PDE buffer to make a 200 nM solution. Make only sufficient quantity needed for the assay; store remaining […] stock solution in aliquots at −20° C. 2) Add 25 μl of FAM-Cyclic-3′,5′-AMP (200 nM) to each well designated “Positive Control”, “Test Inhibitor”, and “Substrate Control”. 3) Add 20 μl of PDE assay buffer to each well designated “Substrate Control” and 45 μl of PDE assay buffer to each well designated “Blank”. 4) Add 5 μl of inhibitor solution to each well designated “Test Inhibitor”. For the wells labeled “Positive Control”, “Substrate Control” and “Blank”, add 5 μl of the same solution without inhibitor (inhibitor buffer). 5) Thaw PDE on ice. Upon first thaw, briefly spin tube containing enzyme to recover the full contents of the tube. 6) Dilute PDE4 in PDE buffer to 7.5 pg/μl (0.15 ng/reaction)*. Initiate reaction by adding 20 μl of PDE4 (7.5 pg/μl) to the wells designated “Positive Control” and “Test Inhibitor.” 7) Incubate at room temperature for 1 hour.
(§3) 1) Mix binding agent thoroughly and dilute binding agent 1:100 with binding agent diluent. 2) Add 100 μl diluted binding agent to each microwell. Incubate at room temperature for 1 hour with slow shaking. 3) Read the fluorescent polarization of the sample in a microtiter-plate reader equipped for the measurement of fluorescence polarization, capable of excitation at wavelengths ranging from 485±5 nm and detection of emitted light ranging from 528±10 nm. Blank value is subtracted from all other values.

Data set [3] concerns the target T3, PDE4D2 (Homo sapiens, UniProt Q08499).
T3 construct: purchased BPSBioscience
The data set can be described thus: Recombinant PDE4 Inhibition Assay of Example A2. In kind it is biochemical. The settings on record: recombinant enzyme. The protocol:
as §1, §2, §3

Data set [4] addresses T4, PDE4B2 (Homo sapiens, UniProt Q07343).
T4 construct: purchased BPSBioscience
Kind of data set: Recombinant PDE4 Inhibition Assay of Example A2. Format: biochemical. The following applies: recombinant enzyme. The protocol:
as §1, §2, §3

Data set [5] has as its target T5, PDE4A1A (Homo sapiens, UniProt P27815).
T5 construct: purchased BPSBioscience
The data set can be described thus: Recombinant PDE4 Inhibition Assay of Example A2. In kind it is biochemical. The settings on record: recombinant enzyme. The protocol:
as §1, §2, §3

The target in data set [6] is 5-HT transporter (“SERT”) (Homo sapiens, UniProt P31645). The following applies: Hill coefficient of binding curve, Harvey et al., 2011; cited from earlier work.
The conditions of data set [7]: cited from earlier work.
Setting [8] is: class symbols, read-out: SERT IC50.

T2 sequence (Q08493 whole entry): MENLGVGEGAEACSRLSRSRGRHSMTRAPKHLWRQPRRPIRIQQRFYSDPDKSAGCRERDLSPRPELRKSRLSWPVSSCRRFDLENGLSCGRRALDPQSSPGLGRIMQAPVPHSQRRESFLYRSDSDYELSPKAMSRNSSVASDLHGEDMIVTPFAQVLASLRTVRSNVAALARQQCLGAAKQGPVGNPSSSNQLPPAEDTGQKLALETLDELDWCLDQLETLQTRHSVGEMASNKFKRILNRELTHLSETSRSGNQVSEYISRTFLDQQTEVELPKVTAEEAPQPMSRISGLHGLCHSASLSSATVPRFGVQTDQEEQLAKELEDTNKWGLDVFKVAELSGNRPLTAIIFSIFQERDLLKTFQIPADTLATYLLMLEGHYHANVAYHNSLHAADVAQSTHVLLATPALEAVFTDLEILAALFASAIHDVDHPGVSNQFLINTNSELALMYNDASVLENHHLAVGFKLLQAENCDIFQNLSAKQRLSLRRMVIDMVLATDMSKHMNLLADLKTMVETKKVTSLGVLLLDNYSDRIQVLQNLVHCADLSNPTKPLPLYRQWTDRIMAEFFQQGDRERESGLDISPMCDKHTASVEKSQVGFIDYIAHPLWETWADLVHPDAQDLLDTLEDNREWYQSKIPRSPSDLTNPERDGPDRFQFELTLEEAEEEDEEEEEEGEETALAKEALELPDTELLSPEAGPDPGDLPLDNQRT
T4 sequence (Q07343 1-564 isoform Q07343-2): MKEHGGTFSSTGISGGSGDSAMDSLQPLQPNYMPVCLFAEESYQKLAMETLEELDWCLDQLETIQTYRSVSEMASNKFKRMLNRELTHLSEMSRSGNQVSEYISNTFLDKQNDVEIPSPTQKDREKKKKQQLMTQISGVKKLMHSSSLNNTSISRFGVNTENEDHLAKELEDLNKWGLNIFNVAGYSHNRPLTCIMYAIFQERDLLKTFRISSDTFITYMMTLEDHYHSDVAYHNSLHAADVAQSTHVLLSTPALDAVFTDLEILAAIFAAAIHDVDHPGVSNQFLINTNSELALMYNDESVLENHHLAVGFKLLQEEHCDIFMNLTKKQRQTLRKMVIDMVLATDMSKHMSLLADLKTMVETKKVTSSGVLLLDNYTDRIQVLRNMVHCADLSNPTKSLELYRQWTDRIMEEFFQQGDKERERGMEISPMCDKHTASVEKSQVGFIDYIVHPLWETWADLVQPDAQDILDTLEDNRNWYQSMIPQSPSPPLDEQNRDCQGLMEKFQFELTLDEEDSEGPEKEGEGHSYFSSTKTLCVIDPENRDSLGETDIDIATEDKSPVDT
T5 sequence (P27815 1-647 isoform P27815-4): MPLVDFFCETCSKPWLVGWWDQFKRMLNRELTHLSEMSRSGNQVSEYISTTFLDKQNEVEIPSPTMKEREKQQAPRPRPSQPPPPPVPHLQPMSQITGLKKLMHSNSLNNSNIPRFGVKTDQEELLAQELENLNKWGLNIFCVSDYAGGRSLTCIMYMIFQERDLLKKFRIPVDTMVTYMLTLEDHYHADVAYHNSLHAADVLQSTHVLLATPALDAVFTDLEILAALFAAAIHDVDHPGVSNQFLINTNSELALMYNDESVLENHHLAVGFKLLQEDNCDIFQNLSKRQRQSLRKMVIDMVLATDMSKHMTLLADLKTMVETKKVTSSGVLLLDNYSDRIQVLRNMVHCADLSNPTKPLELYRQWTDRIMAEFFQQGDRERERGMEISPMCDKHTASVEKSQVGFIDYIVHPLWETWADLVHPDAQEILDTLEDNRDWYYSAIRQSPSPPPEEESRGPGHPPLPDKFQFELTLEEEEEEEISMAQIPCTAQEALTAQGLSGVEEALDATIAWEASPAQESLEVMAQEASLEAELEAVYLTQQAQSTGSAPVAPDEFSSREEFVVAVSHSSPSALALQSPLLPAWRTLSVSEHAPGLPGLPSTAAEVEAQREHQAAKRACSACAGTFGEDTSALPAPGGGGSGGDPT
T3 sequence (Q08499 303-809): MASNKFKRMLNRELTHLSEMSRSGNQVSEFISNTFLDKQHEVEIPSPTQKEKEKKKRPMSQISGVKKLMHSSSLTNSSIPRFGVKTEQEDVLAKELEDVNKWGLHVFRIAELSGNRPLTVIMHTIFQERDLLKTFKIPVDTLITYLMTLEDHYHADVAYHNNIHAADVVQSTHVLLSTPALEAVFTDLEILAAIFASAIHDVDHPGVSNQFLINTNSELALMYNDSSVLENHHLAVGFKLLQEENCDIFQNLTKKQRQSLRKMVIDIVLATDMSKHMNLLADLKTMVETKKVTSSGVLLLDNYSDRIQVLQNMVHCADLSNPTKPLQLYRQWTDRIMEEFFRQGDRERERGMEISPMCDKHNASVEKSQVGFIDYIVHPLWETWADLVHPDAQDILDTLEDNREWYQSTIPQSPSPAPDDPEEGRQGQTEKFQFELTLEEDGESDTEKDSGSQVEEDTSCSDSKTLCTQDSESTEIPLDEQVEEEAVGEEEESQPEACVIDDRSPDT
T1 sequence (P31645 whole entry, species assumed): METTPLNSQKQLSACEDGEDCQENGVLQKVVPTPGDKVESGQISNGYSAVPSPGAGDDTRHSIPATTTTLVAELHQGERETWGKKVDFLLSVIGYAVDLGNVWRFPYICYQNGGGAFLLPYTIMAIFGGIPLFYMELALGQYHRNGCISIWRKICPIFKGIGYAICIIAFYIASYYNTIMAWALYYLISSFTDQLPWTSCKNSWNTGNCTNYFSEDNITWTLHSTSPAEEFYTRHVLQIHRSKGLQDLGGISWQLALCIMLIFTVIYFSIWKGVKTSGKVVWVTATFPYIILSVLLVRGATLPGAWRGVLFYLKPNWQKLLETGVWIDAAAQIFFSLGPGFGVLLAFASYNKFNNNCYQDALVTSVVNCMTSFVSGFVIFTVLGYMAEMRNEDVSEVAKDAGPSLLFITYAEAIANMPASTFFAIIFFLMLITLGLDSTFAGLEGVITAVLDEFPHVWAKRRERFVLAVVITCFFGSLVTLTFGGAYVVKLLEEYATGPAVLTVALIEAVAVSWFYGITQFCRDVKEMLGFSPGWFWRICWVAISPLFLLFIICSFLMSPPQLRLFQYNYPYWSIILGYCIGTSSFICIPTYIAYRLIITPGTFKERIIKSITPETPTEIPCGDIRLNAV
Chain of 5-HT transporter (“SERT”) (P31645 whole entry, species assumed): as above

For `COc1cc(C23C=CC(=O)CC2N(C)CC3)cc(OC)c1OC` (centres unmarked) [Compound 144, 1-methyl-3a-(3,4,5-trimethoxyphenyl)-2,3,7,7a-tetrahydroindol-6-one], the IC50 in data set [1] (setting [8]) was over 1 µM; in data set [1] (read-out: SERT inhibition IC50) it was over 1 µM; in data set [2], over 10 µM; in data set [3], over 10 µM; in data set [4], over 10 µM; in data set [5], over 10 µM.

With `COc1cc([C@@]23C=CC(=O)CC2N(C)CC3)cc(Br)c1OC` (stereo partly drawn) [Compound 130, (3aR)-3a-(3-bromo-4,5-dimethoxy-phenyl)-1-methyl-2,3,7,7a-tetrahydroindol-6-one], the IC50 in data set [1] (setting [8]) was 0.5 to 1 µM; in data set [1] (read-out: SERT inhibition IC50), under 1 µM; in data set [2] it was over 10 µM; in data set [3], over 10 µM; in data set [4], over 10 µM; in data set [5] it was over 10 µM.

`COc1cc([C@@]23C=CC(=O)C[C@@H]2N(C)CC3)cc(I)c1OC` [Compound 132, (3aR,7aS)-3a-(3-iodo-4,5-dimethoxy-phenyl)-1-methyl-2,3,7,7a-tetrahydroindol-6-one]: the IC50 in data set [1] (setting [8]) is 0.1 to 0.5 µM; in data set [1] (read-out: SERT inhibition IC50), under 1 µM; in data set [2], over 10 µM; in data set [3] it was over 10 µM; in data set [4] it was over 10 µM; in data set [5] it was over 10 µM.

Turning to `COc1cc([C@@]23C=CC(=O)C[C@@H]2N(C)CC3)cc(F)c1OC` [Compound 133, (3aR,7aS)-3a-(3-fluoro-4,5-dimethoxy-phenyl)-1-methyl-2,3,7,7a-tetrahydroindol-6-one], the IC50 was 0.1 to 0.5 µM in data set [1] (setting [8]); under 1 µM in data set [1] (read-out: SERT inhibition IC50); over 10 µM in data set [2]; over 10 µM in data set [3]; 1 to 10 µM in data set [4]; 1 to 10 µM in data set [5].

For `COc1ccc([C@@]23C=CC(=O)C[C@@H]2N(C)CC3)cc1OC` [Mesembrenone], the “5-HT transporter (“SERT”) nH” value in data set [6] was 1.0.

On to `COc1ccc([C@@]23CCC(=O)C[C@@H]2N(C)CC3)cc1OC` [(−) mesembrine], for which the half-life in plasma entry in data set [7] is “less than 2 hours”.

Usually IC50 stands for the point on the concentration scale where inhibition reaches its midpoint.
